In patent US11680047B2, “Enhanced erythropoiesis and iron metabolism” (FibroGen, Inc., priority 2003, dated 2023):

Tests used:
[1] = system: EPO production; test: Secreted EPO (ELISA) in Hep3B cells treated with TNF-α; format: cell-based; details: for effect on suppression of EPO production by TNF-α: 2-hour pre-treatment with TNF-α, EPO 3 days after compound addition; for effect on inhibition of EPO production by TNF-α: compound in the presence of TNF-α (0.4-10 ng/ml); for effect on inhibition of EPO production by TNF-α / EPO production: 3 days; for EPO production: various concentrations of compound, absence of TNF-α
Description: (§1) Hep3B cells were treated with various concentrations (0, 0.4, 2, 10 ng/ml) of TNF-α in the absence or presence of compound A or compound B for 3 days. Secreted EPO levels were determined using a commercially available ELISA kit (R&D Systems, catalog no. DEP00). In the absence of compound, treatment of Hep3B cells with TNF-α reduced EPO production in a dose-dependent manner. […] Therefore, inhibitory effects of the inflammatory cytokine TNF-α on EPO production were overcome by inhibition of prolyl hydroxylase activity using compounds and methods of the present invention. […] Further, the methods and compounds of the present invention are useful to increase EPO production and, therefore, to treat anemia in a subject, for example, wherein the subject has a disorder associated with TNF-αQ such as acute or chronic inflammation or other anemia of chronic disease.
(§2) A series of experiments were performed to examine the effects of compounds of the present invention on EPO production following exposure of cells to the inflammatory cytokine TNF-α (i.e., in cells already exposed to TNF-α). In these experiments, TNF-α signaling would therefore be initiated prior to the addition of a prolyl hydroxylase inhibitor. Hep3B cells were treated with various concentrations (0, 0.4, 2, 10 ng/ml) of TNF-α for 2 hours, after which various concentrations of compound A or compound B were added to the cultured cells. Secreted EPO levels were determined as described above 3 days following compound addition.

[2] = system: EPO production; test: Secreted EPO (ELISA) in Hep3B cells treated with IL-1β; format: cell-based; details: for effect on suppression of EPO production by IL-1β: 2-hour pre-treatment with IL-1β, EPO 3 days after compound addition; for effect on inhibition of EPO production by IL-1β: compound in the presence of IL-1β (0.4-10 ng/ml); for effect on inhibition of EPO production by IL-1β / EPO production: 3 days; for EPO production: various concentrations of compound, absence of IL-1β
Description: as §1, with “IL-1β” for “TNF-α”, “IL-1β” for “TNF-αQ”
as §2, with “IL-1β” for “TNF-α”, “IL-1β).” for “TNF-α).”

[3] = system: EPO production; test: Secreted EPO (ELISA) in Hep3B cells treated with IL-6; format: cell-based; details: for effect of compound treatment on EPO production in the presence of IL-6: compound plus IL-6
Description: Secreted EPO levels were determined using a commercially available ELISA kit (R&D Systems, catalog no. DEP00). […] As shown in FIGS. 27A and 27B, Hep3B cells treated with IL-6 increased EPO expression slightly above that in non-treated cells. Specifically, EPO levels in control cells was approximately 20 mIU/ml, while that in cells treated with 10 ng/ml IL-6 was approximately 50 mIU/ml.

[4] = system: transferrin receptor; test: Transferrin receptor expression by FACS (CD71-PE antibody) in Hep3B cells; format: cell-based; details: 1 day
Description: (§3) The effect of compounds of the invention on transferrin receptor expression was examined as follows. Various cells (Hep3B, HepG2, HK-2) were incubated with compound A or compound B for 1 day. The cells were then analyzed for transferrin receptor expression by FACS analysis using CD71-PE antibody (Ancell, catalog no. 223-050).

[5] = system: transferrin receptor; test: Transferrin receptor expression by FACS (CD71-PE antibody) in HepG2 cells; format: cell-based; details: HepG2, 1 day
Description: as §3

[6] = system: transferrin receptor; test: Transferrin receptor expression by FACS (CD71-PE antibody) in HK-2 cells; format: cell-based; details: HK-2, 1 day
Description: as §3

[7] = system: NRAMP2; test: NRAMP2 mRNA in small intestine of mice after IV administration (microarray); format: in vivo, mouse; details: 60 mg/kg IV, 4 hours
Description: In another experiment, mRNA was isolated from small intestine harvested 4 hours following IV administration of 60 mg/kg compound A, compound B, and compound C to mice. Probes were prepared from each of two animals from 5 treatment groups, and hybridized to Affymetrix mouse MOE430Aplus2 microarrays (one animal per array). Statistical comparisons of data obtained from arrays from treated versus non-treated animals was performed. […] Expression levels are shown as fold-induction over control, untreated animals for each expressed gene.

[8] = system: VCAM-1; test: TNF-α induced VCAM-1 expression in HUVEC; format: cell-based, human; details: TNF-α 1 ng/ml, 1 day
Text: Endothelial cell adhesiveness for lymphocytes occurs, in part, by endothelial cell expression of vascular cell adhesion molecule (VCAM)-1. VCAM-1 expression in endothelial cells is induced by various inflammatory cytokines, such as TNF-α. To investigate the effect of HIF prolyl hydroxylase inhibition on TNF-α induced VCAM-1 expression, HUVEC (human umbilical vein endothelial cells) were stimulated with TNF-α in the absence or presence of various concentrations of compound B or compound C for 1 day. VCAM expression was then measured.
(§4) Endothelial E-selectin belongs to the selectin family of cellular adhesion molecules mediating the initial attachment of leukocytes to vascular endothelial cells in inflammatory events. IL-1β, TNF-α, and lipopolysaccharides each induce the expression of E-selectin. (See, e.g., Bevilacqua et al. (1987) Proc Natl Acad Sci USA 84:9238-9242 and Bevilacqua and van Furth (1993) J Leukoc Biol 54:363-378.) To investigate the effect of HIF prolyl hydroxylase inhibition on TNF-α induced E-selectin expression, HUVECs were stimulated with 1 ng/ml TNF-α in the absence or presence of various concentrations of compound B or compound C for 1 day. E-selectin and VCAM expression were then measured.

[9] = system: E-selectin; test: TNF-α induced E-selectin expression in HUVEC; format: cell-based, human; details: 1 ng/ml TNF-α, various concentrations, 1 day
Text: as §4

[10] = 10 µM compound, absence of IL-6
[11] = compound in the presence of 10 ng/ml IL-6

Row | Compound | effect on suppression of EPO production by TNF-α [1] | effect on inhibition of EPO production by TNF-α [1] | EPO production [1] | effect on suppression of EPO production by IL-1β [2] | effect on inhibition of EPO production by IL-1β [2] | EPO production [2] | EPO levels [3, 10] | EPO levels [3, 11] | effect of compound treatment on EPO production in the presence of IL-6 [3] | EPO levels ([3]; compound without IL-6) | Mean FL (transferrin receptor) [4] | Mean FL (transferrin receptor) [5] | Mean FL (transferrin receptor) [6] | NRAMP2 mRNA expression in small intestine [7] | inhibition of TNF-α induced VCAM-1 expression [8] | inhibition of TNF-α induced E-selectin expression [9]
1 | O=C(O)CNC(=O)c1nc(Cl)c2ccccc2c1O [Compound A, [(1-Chloro-4-hydroxy-isoquinoline-3-carbonyl)-amino]-acetic acid] | overcame the suppressive effects of TNF-α on EPO production | greatly reduced the inhibitory effects of TNF-α on EPO production | dose-dependent increase in EPO production | overcame the suppressive effects of IL-1 on EPO production | greatly reduced the inhibitory effects of IL-1β on EPO production | dose-dependent increase in EPO production | approximately 60 mIU/ml | approximately 270 mIU/ml | synergistic | increased EPO levels in a dose-dependent manner | 40.89 | 56.52 | 12.20 | increasing expression of NRAMP2 in intestine | – | –
2 | O=C(O)CNC(=O)c1ncc2cc(Oc3ccccc3)ccc2c1O [Compound B, [(4-Hydroxy-7-phenoxy-isoquinoline-3-carbonyl)-amino]-acetic acid] | overcame the suppressive effects of TNF-α on EPO production | greatly reduced the inhibitory effects of TNF-α on EPO production | dose-dependent increase in EPO production | overcame the suppressive effects of IL-1 on EPO production | greatly reduced the inhibitory effects of IL-1β on EPO production | dose-dependent increase in EPO production | ~220 mIU/ml | greater than 400 mIU/ml | synergistic | increased EPO levels in a dose-dependent manner | 42.43 | 53.53 | 18.92 | increasing expression of NRAMP2 in intestine | does-dependent inhibition of TNF-α induced VCAM-1 expression | dose-dependent inhibition of TNF-α induced VCAM and E-selectin expression
